± gives the standard deviation of the averaged measurements.
Assays:
Experiment in all cases: CTG-3D luminescence at 96 h relative to day-0 seeding control (ratio to day 0); higher = more growth / less cytotoxicity; PDxO 3D drug screen, 96 h, CTG-3D normalised to day-0 seeding control.
HCI-008 = system: HCI-008 (organoid from a HER2-enriched breast cancer xenograft)
HCI-010 = system: HCI-010 (organoid from a breast cancer xenograft)
HCI-016 = system: HCI-016 (organoid from a triple-negative breast cancer xenograft)
HCI-019 = system: HCI-019 (organoid from a triple-negative breast cancer xenograft)
HCI-025 = system: HCI-025 (organoid from a breast cancer xenograft)
HCI-027 = system: HCI-027 (organoid from a triple-negative breast cancer xenograft)

C[C@@H]1COCCN1c1cc(C2([S@](C)(=N)=O)CC2)nc(-c2cc[nH]c3nccc2-3)n1 [ceralasertib]
CTG-3D luminescence at 96 h
Conditions	12.5 pM	0.00025 µM	0.005 µM	0.1 µM	1 µM	10 µM	100 µM	625 fM
HCI-008, days in culture: 228	1.99 ± 0.17	1.95 ± 0.15	1.41 ± 0.34	1.81 ± 0.3	1.36 ± 0.054	0.531 ± 0.11	0.212 ± 0.0027	1.72 ± 0.17
HCI-008, days in culture: 244	1.32	2.13	2.05	2.01	1.26	0.71	0.334	2.35
HCI-010, days in culture: 52	2.13	2.39	2.26	2.04	0.835	0.422	0.238	2.24
HCI-010, days in culture: 65	1.69	1.62	1.85	1.57	0.693	0.3	0.152	1.65
HCI-010, days in culture: 103	3.6	3.3	3.45	3	1.49	0.548	0.325	3.14
HCI-016, days in culture: 153	3.13	2.07	1.95	2.28	1.72	0.113	0.0761	2.11
HCI-016, days in culture: 172	2.3	1.91	1.66	1.88	1.12	0.141	0.0786	1.92
HCI-016, days in culture: 190	1.54	1.14	1.72	1.27	1.11	0.1	0.0608	1.28
HCI-016, days in culture: 199	1.42	1.55	1.36	1.25	0.986	0.0835	0.0684	1.6
HCI-019, days in culture: 110	1.9	1.2	1.15	2	0.748	0.526	0.468	1.62
HCI-019, days in culture: 131	2.22	3.35	3.06	3.3	1.98	0.424	0.71	3.75
HCI-019, days in culture: 152	2.6	2.77	2.34	2.22	1.1	0.604	0.499	2.45
HCI-025, days in culture: 172	2.29	1.93	3.61	2.46	1.59	0.359	0.297	1.92
HCI-025, days in culture: 209	1.3	1.6	1.64	1	0.856	0.386	0.184	1.38
HCI-025, days in culture: 218	1.86	1.85	2.07	1.64	0.97	0.482	0.269	1.88
HCI-027, days in culture: 176	2	1.26	2.33	1.47	0.682	0.114	0.29	2.06
HCI-027, days in culture: 194	1.7	1.54	1.32	1.62	0.748	0.111	0.232	1.56
HCI-027, days in culture: 201	1.78	1.98	1.99	2.1	0.726	0.134	0.279	1.54

Cc1cc(Nc2ncnc3ccc(NC4=NC(C)(C)CO4)cc23)ccc1Oc1ccn2ncnc2c1 [tucatinib]
CTG-3D luminescence at 96 h
Conditions	12.5 pM	0.00025 µM	0.005 µM	0.1 µM	1 µM	10 µM	100 µM	625 fM
HCI-008, days in culture: 228	1.79 ± 0.28	1.66 ± 0.056	1.49 ± 0.094	1.85 ± 0.34	1.83 ± 0.27	1.5 ± 0.17	0.0233 ± 0.013	1.8641 ± 0.0016
HCI-008, days in culture: 244	1.41	1.81	2.11	1.99	1.83	1.84	0.0167	2.29
HCI-010, days in culture: 52	2.07	2.16	2.18	2.37	2.53	2.2	0.0134	2.34
HCI-010, days in culture: 65	1.6	1.68	1.97	1.81	1.83	1.4	0.008	1.64
HCI-010, days in culture: 103	3.37	3.95	3.45	3.39	3.5	2.84	0.014	3.37
HCI-016, days in culture: 153	2.94	1.99	2.31	1.49	2.19	1.96	0.013	1.94
HCI-016, days in culture: 172	2.3	2.27	1.67	1.43	1.54	0.81	0.0152	1.3
HCI-016, days in culture: 190	1.7	1.19	1.48	1.54	1.57	1.45	0.0124	1.1
HCI-016, days in culture: 199	1.77	1.74	1.65	1.66	1.78	1.38	0.019	1.83
HCI-019, days in culture: 110	2.14	1.65	1.28	1.81	1.13	2.33	0.029	2.47
HCI-019, days in culture: 131	2.25	3.22	3.6	3.65	2.9	3.09	0.0325	4.09
HCI-019, days in culture: 152	3.48	3.89	3.04	1.67	1.99	2.26	0.0487	2
HCI-025, days in culture: 172	3	1.87	3.97	2.2	2.35	1.75	0.0232	2.16
HCI-025, days in culture: 209	1.95	2.11	2.45	1.5	1.95	1.9	0.0118	1.06
HCI-025, days in culture: 218	1.26	1.91	1.79	1.43	1.02	1.62	0.249	1.71
HCI-027, days in culture: 176	2.4	1.31	2.9	2.1	1.61	0.414	0.0112	1.82
HCI-027, days in culture: 194	1.81	1.55	1.49	1.66	2.06	1.41	0.0114	1.7
HCI-027, days in culture: 201	2.47	2.58	2.3	2.28	2.1	0.716	0.01	2.42

NC1(C(=O)N[C@@H](CCO)c2ccc(Cl)cc2)CCN(c2nc[nH]c3nccc2-3)CC1 [capivasertib]
CTG-3D luminescence at 96 h
Conditions	12.5 pM	0.00025 µM	0.005 µM	0.1 µM	1 µM	10 µM	100 µM	625 fM
HCI-008, days in culture: 228	1.6 ± 0.04	2.11 ± 0.38	1.54 ± 0.2	0.955 ± 0.35	0.441 ± 0.091	0.222 ± 0.31	0.155 ± 0.24	1.76 ± 0.22
HCI-008, days in culture: 244	1.6	1.98	1.87	1.34	0.546	0.415	0.392	2.08
HCI-010, days in culture: 52	2.05	2.33	2.4	2.54	2.01	1.78	0.545	2.15
HCI-010, days in culture: 65	1.57	1.77	1.93	1.6	1.47	1.18	0.287	1.58
HCI-010, days in culture: 103	3.5	3.47	3.91	3.21	2.35	2.11	0.959	3.23
HCI-016, days in culture: 153	3.06	1.93	2.64	2.32	2.43	1.43	0.426	2.85
HCI-016, days in culture: 172	2.38	1.35	1.88	1.56	1.72	1.44	0.453	1.75
HCI-016, days in culture: 190	1.81	1.24	1.5	0.925	1.13	1.1	0.565	1.47
HCI-016, days in culture: 199	1.58	1.48	1.5	1.6	1.44	0.914	0.407	1.79
HCI-019, days in culture: 110	1.22	1.74	1.4	1.97	0.842	1.18	0.332	1.92
HCI-019, days in culture: 131	2.99	3.67	2.98	3.31	1.45	1.63	0.521	4.08
HCI-019, days in culture: 152	2.96	2.9	2.96	1.68	0.946	0.895	0.274	2.6
HCI-025, days in culture: 172	2.76	1.4	3.17	1.35	1.43	0.474	0.354	2.57
HCI-025, days in culture: 209	1.74	1.99	1.44	0.818	0.472	0.37	0.266	1.74
HCI-025, days in culture: 218	1.88	2.08	1.82	1.2	0.565	0.592	0.288	1.69
HCI-027, days in culture: 176	2.31	1.3	2.32	1.05	1.12	0.758	0.0952	2.13
HCI-027, days in culture: 194	1.58	1.48	1.43	1.57	1.36	1.2	0.0815	1.55
HCI-027, days in culture: 201	1.67	1.8	1.88	2.17	1.71	0.976	0.0625	1.6

NC(=O)c1cccc2cn(-c3ccc([C@@H]4CCCNC4)cc3)nc12 [niraparib]
CTG-3D luminescence at 96 h
Conditions	12.5 pM	0.00025 µM	0.005 µM	0.1 µM	1 µM	10 µM	100 µM	625 fM
HCI-008, days in culture: 228	1.87 ± 0.39	1.97 ± 0.27	1.45 ± 0.19	1.55 ± 0.031	1.34 ± 0.099	0.828 ± 0.26	0.00065 ± 0.00088	1.72 ± 0.14
HCI-008, days in culture: 244	1.42	1.98	1.91	2.31	1.77	1.17	-0.000168	2.42
HCI-010, days in culture: 52	1.94	2.41	2.17	2.55	2.02	0.332	0.006	2.06
HCI-010, days in culture: 65	1.44	1.78	1.88	1.63	1.54	0.382	0.000688	1.62
HCI-010, days in culture: 103	3.06	3.18	3.13	3.19	2.67	0.397	0.00829	2.94
HCI-016, days in culture: 153	2.7	1.98	2.84	1.82	0.989	0.444	-0.00489	2.67
HCI-016, days in culture: 172	2.42	2.33	2.02	1.56	1.36	0.272	-0.00828	1.66
HCI-016, days in culture: 190	1.64	1.64	2.08	1.58	0.974	0.189	-0.105	1.59
HCI-016, days in culture: 199	2.02	2.05	1.96	1.54	0.655	0.118	-0.0141	2.02
HCI-019, days in culture: 110	1.64	1.35	1.18	1.2	0.642	1.1	0.00205	2.72
HCI-019, days in culture: 131	2.29	3.06	2.98	2.4	0.89	1.3	0.00628	3.35
HCI-019, days in culture: 152	2.88	2.16	1.69	1.52	0.878	1.16	0.00267	2.35
HCI-025, days in culture: 172	2.92	1.82	3.92	2.04	2.08	0.426	-0.311	2.26
HCI-025, days in culture: 209	1.9	2.67	2.31	1.69	1.9	0.545	-0.0263	1.59
HCI-025, days in culture: 218	1.38	1.94	1.97	1.83	1.03	0.271	-0.304	1.62
HCI-027, days in culture: 176	3.12	1.73	3.18	2.13	1.7	0.11	-0.239	3.68
HCI-027, days in culture: 194	2.35	1.82	2.05	2.39	1.88	0.735	-0.0845	2.19
HCI-027, days in culture: 201	3.32	3.11	3.01	2.94	1.55	0.457	-0.0215	2.7
